Source: article PMC3600304, “Inhibitors of Fatty Acid Synthesis Induce PPARα-Regulated Fatty Acid β-Oxidative Genes: Synergistic Roles of L-FABP and Glucose” (PPAR Research, 2013)

Key:
L-FABP = molecular target: T1, L-FABP (Rattus norvegicus, UniProt P02692); experiment: Displacement of L-FABP-bound ANS; format: binding; conditions: read-out: K i, displacing L-FABP-bound ANS
T1 construct: made in house
T1 sequence (P02692 1-127): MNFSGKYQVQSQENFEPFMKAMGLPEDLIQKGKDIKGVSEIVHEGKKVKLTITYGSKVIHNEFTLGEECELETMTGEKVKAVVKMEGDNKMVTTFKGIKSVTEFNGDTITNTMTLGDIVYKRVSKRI
Method: Advantage was taken of the fact that NBD-stearic acid bound to L-FABP (two ligand binding sites) as well as SCP-2 (single-ligand binding site) to design a NBD-stearic acid displacement assay that allowed determination of which fatty acid synthesis inhibitors or their CoA thioesters bound to these LCFA/LCFA-CoA binding proteins. Displacement of NBD-stearate from L-FABP and SCP-2 was determined by incubating L-FABP or SCP-2 (25 nM in 10 mM phosphate buffer) with NBD stearate (40 nM) for 12 min to obtain maximal fluorescence, followed by titration with increasing amount of ligand. From the displacement curve, the K i value was calculated as described. All experiments were carried out with a thermostated cuvette to maintain temperature at 24°C using a circulating water bath. ANS displacement assay was performed as described.

PPARα = conditions: COS7 cells; cited from earlier work

| Ki (L-FABP) | SMILES | Transactivation of PPARα (PPARα) |
| --- | --- | --- |
| 5.59 ± 0.31 µM | C=C1C(=O)OC(CCCCCCCC)C1C(=O)O (centres unmarked) [C75, 4-methylene-2-octyl-5-oxotetrahydrofuran-3-carboxylic acid] | – |
| – | CCCCCCCCCCCCCCOc1ccc(C(=O)O)o1 [TOFA, 5-tetradecyloxy-2-furancarboxylic acid] | transactivated |
